Source: US5474757A, “Prevention of acetaminophen overdose toxicity with organosulfur compounds” (priority 1992, dated 1995)
Several values for one entry are separate records, joined by “and”; a condition that tells them apart may be missing. Equal entries are not always repeated. Entries after “also recorded” stand apart in the source; their conditions may differ. Where two headings read alike, the source gives them in different places.

Experiments:
P-450 2E1 [1] = conditions: isolated rat liver microsomes; cited from earlier work
[2] = test system: p-nitrophenol hydroxylase; conditions: isolated rat liver microsomes; cited from earlier work
P-450 2E1 [3] = conditions: cited from earlier work; for liver microsomal P-450 2E1-dependent (NDMA demethylase) activity: treatment of rats
[4] = test system: acetaminophen bioactivation; conditions: cited from earlier work
acetaminophen overdose = conditions: cited from earlier work; for protection in acetaminophen overdose: Prescott et al.; for protective action: animals
[5] = test system: acetaminophen-induced hepatotoxicity; assay: Protective effect against acetaminophen overdose in rats (serum GPT, LDH, liver damage); assay type: in vivo, rat (male Fisher 344)
Procedure: Brady et al., "Effect of […] […] Biochem. […] Extent of tissue damage was determined using a […]-6 Image Analysis System (Advanced Imaging Concepts, Inc.). […] All determinations were made without knowledge of treatment group. […] All experiments were replicated at least once.

[6] = test system: acetaminophen-induced hepatotoxicity; assay: animal or person
Excerpt: Blood samples were obtained from the jugular vein of CO2 -anesthetizedanimals. The blood was allowed to clot at room temperature and serum was separated by centrifugation. […] Biochem. Biophys.
Randomly-selected samples of the major hepatic lobe were fixed in 10% buffered formalin for histological evaluation. Samples were subsequently embedded in Paraplast (Fisher Scientific) and sectioned at 6 μm on a rotary microtome. Tissue sections were stained with hematoxylin-eosine-phloxine for examination. Extent of tissue damage was determined using a Presage CV-6 Image Analysis System (Advanced Imaging Concepts, Inc.). Images of randomly-selected slides (3 slides/animal, 2-3 animals/group) containing full cross sections of the major hepatic lobe were projected onto a computer screen and the image captured. The areas of damage were then outlined on the screen and the areas quantated using interactive software. The area of damage was shown as a percentage of the total hepatic area for each section. All determinations were made without knowledge of treatment group.
Data were analyzed by the Newman-Keuls multiple comparison procedure on the rank score analysis.
All experiments were replicated at least once.
As a Comparative Example, 300 mg/kg N-acetylcysteine was also administered immediately after administration of 0.2 g/kg acetaminophen.
As a Comparative Example, 300 mg/kg N-acetylcysteine was also administered 1 hour after administration of 0.2 g/kg acetaminophen.

P-450 2E1 [7] = assay: Hepatic microsomal NDMA demethylase activity after a single oral dose in mice; assay type: in vivo, mouse; conditions: for NDMA demethylase activity, % of the control level: 50 mg/kg single oral dose
Procedure: (§1) Biochem. Biophys. 238:42-48 (1985).
(§2) In Example 3, this effect was studied in mice. In Example 3, changes in hepatic monooxygenase enzymes after a single oral dose of DASO2 were studied. DASO2 (50 mg/kg) was administrated to mice intragastrically and sacrificed at the indicated time. Control (0 time) mice received distilled water only.
(§3) Hepatic microsomal NDMA demethylase activity (O) is expressed as nmol HCHO produced/min/mg. Pentoxyresorufin ([ ]) and ethoxyresorufin dealkylase activities are expressed as pmol resorufin produced/min/mg. Each point represents the mean ±S.D. of five separate microsomal preparations. *p<0.05 compared to control.

P-450 1A2 = assay: Hepatic microsomal ethoxyresorufin (EORR) dealkylase activity after a single oral dose in mice; assay type: in vivo, mouse
Procedure: as §1, §2, §3

hepatotoxicity = conditions: cited from earlier work
[8] = orally less than 24 hours after the overdose
[9] = 50 mg/kg oral, 3 hours after APAP 0.4 g/kg
[10] = 600 mg/kg oral, 1 hour after APAP 0.4 g/kg
[11] = 600 mg/kg oral, 6 hours after APAP 0.4 g/kg
[12] = 300 mg/kg oral, 1 hour after APAP 0.2 g/kg
[13] = 300 mg/kg oral, immediately after APAP 0.2 g/kg
[14] = 5 mg/kg oral, 1 h after APAP 0.4 g/kg
[15] = 5 mg/kg oral, 3 hours after APAP 0.4 g/kg
[16] = 15 mg/kg oral, 1 h after APAP 0.4 g/kg
[17] = 50 mg/kg oral, 1 hour after APAP 0.4 g/kg, mean ± SD of five rats
[18] = 50 mg/kg oral, 6 hours after APAP 0.4 g/kg
[19] = 5 mg/kg oral, immediately (0 min) after APAP 0.2 g/kg
[20] = 10 mg/kg oral, 20 min after APAP 0.2 g/kg
[21] = 25 mg/kg oral, 20 min after APAP 0.2 g/kg
[22] = 25 mg/kg oral, 1 hour after APAP 0.2 g/kg
[23] = 25 mg/kg oral, immediately (0 min) after APAP 0.2 g/kg
[24] = 50 mg/kg oral, immediately (0 min) after APAP 0.2 g/kg
[25] = APAP only, 0.2 g/kg oral, fasted mice, 24 h

Compound: C=CC[S+]([O-])CC=C [DASO, diallyl sulfoxide]
- inhibition of P-450 2E1-catalyzed NDMA demethylase (P-450 2E1 [1]): competitively
- inhibition of p-nitrophenol hydroxylase [2]: competitively
- liver microsomal P-450 2E1-dependent (NDMA demethylase) activity (P-450 2E1 [3]): decreased

Compound: C[S+](C)[O-] [dimethyl sulfoxide]
- inhibition of acetaminophen bioactivation [4]: inhibit acetaminophen bioactivation

Compound: CSCC[C@H](N)C(=O)O [L-methionine]
- protection in acetaminophen overdose (acetaminophen overdose): some protection
- protective action (acetaminophen overdose): protective action
- effectiveness in acetaminophen overdose (acetaminophen overdose; [8]): effective

Compound: CN/C(=N/CCSCc1nc[nH]c1C)NC#N [cimetidine]
- inhibition of acetaminophen bioactivation [4]: inhibit acetaminophen bioactivation

Compound: CC(=O)N[C@@H](CS)C(=O)O [N-AC, N-acetyl-L-cysteine, reference compound]
- Extent of liver damage [5, 9]: 17-38%
- GPT [5, 9]: 135 ± 40 U/L
- prevention of liver necrosis and GPT elevation ([5]; 50 mg/kg, 3 hours after APAP, rats): partially prevented the development of liver necrosis and the elevation of the GPT level
- Extent of liver damage [5, 10]: 1-5%
- GPT [5, 10]: 47 ± 4 U/L
- LDH [5, 10]: 174 ± 35 U/L
- Extent of liver damage [5, 11]: 13-28%
- GPT [5, 11]: 153 ± 62 U/L
- LDH [5, 11]: 269 ± 92 U/L
- protection against liver toxicity ([5]; 600 mg/kg, 1 hr after APAP, compared with DASO2 50 mg/kg, rats): as effective as DASO2 (50 mg/kg) in preventing liver toxicity
- protection ([5]; 600 mg/kg, 6 hours after APAP, rats): partial protection
- dosage needed for similar protection relative to DAS / DASO2 ([5]; N-acetylcysteine dose versus DAS and DASO2 dose): more than ten-fold higher
- Extent of liver damage [6, 12]: 10-17%
- GPT [6, 12]: 131 ± 68 U/L
- LDH [6, 12]: 1140 ± 96 U/L
- Survival [6, 12]: 5/5
- Extent of liver damage [6, 13]: 0%
- GPT [6, 13]: 56 ± 4 U/L
- LDH [6, 13]: 629 ± 124 U/L
- Survival [6, 13]: 5/5
- protection against hepatotoxicity ([6]; 300 mg/kg, 1 hour after acetaminophen, mice): partial protection
- protection against acetaminophen toxicity ([6]; 300 mg/kg, immediately after acetaminophen, mice): protected against acetaminophen toxicity
- effectiveness against acetaminophen toxicity ([6]; 3 hours after acetaminophen dosing, mice (data not shown)): neither DASO2, N-AC nor the combination treatment was effective
- protective action (acetaminophen overdose): protective action
- effectiveness in acetaminophen overdose (acetaminophen overdose; given orally): effective
- effectiveness in acetaminophen overdose (acetaminophen overdose; [8]): effective

Compound: N[C@@H](CS)C(=O)O [L-cysteine]
- protective action (acetaminophen overdose): protective action
- effectiveness in acetaminophen overdose (acetaminophen overdose; [8]): effective

Compound: C=CCS(=O)(=O)CC=C [DASO2, diallyl sulfone]
- Extent of liver necrosis (grade) [5, 14]: 1
- GPT [5, 14]: 162 ± 27.3 U/L
- LDH [5, 14]: 377 ± 71 U/L
- Extent of liver damage [5, 15]: 23-38%
- GPT [5, 15]: 139 ± 46 U/L
- Extent of liver necrosis (grade) [5, 16]: 1
- GPT [5, 16]: 52 ± 8.2 U/L
- LDH [5, 16]: 222 ± 44 U/L
- Extent of liver necrosis (grade) ([5]; 50 mg/kg oral, 1 h after APAP 0.4 g/kg): 0
- Extent of liver damage ([5]; 50 mg/kg oral, 1 hour after APAP 0.4 g/kg): 0-5%
- GPT [5, 17]: 48 ± 9 U/L and 48 ± 9.6 U/L
- LDH [5, 17]: 279 ± 50 U/L and 279 ± 41 U/L
- Extent of liver necrosis (grade) ([5]; 50 mg/kg oral, 3 h after APAP 0.4 g/kg): 1
- Extent of liver damage [5, 9]: 4-8%
- GPT [5, 9]: 133 ± 64 U/L
- LDH [5, 9]: 315 ± 120 U/L
- Extent of liver necrosis (grade) ([5]; 50 mg/kg oral, 6 h after APAP 0.4 g/kg): 2
- Extent of liver damage [5, 18]: 21-40%
- GPT [5, 18]: 182 ± 47 U/L
- LDH [5, 18]: 375 ± 111 U/L
- minimal effective dose ([5]; Rattus norvegicus, rats, read-out: low dose at which protective effect was demonstrated): 5 mg/kg
- Extent of liver damage [6, 19]: 3-5%
- GPT [6, 19]: 51 ± 8 U/L
- LDH [6, 19]: 433 ± 98 U/L
- Survival [6, 19]: 5/5
- GPT [6, 20]: 212 ± 1 U/L
- LDH [6, 20]: 16639 ± 8578 U/L
- Survival [6, 20]: 5/5
- GPT [6, 21]: 89 ± 13 U/L
- LDH [6, 21]: 648 ± 231 U/L
- Survival [6, 21]: 5/5
- Extent of liver damage [6, 22]: 3-10%
- GPT [6, 22]: 110 ± 70 U/L
- LDH [6, 22]: 1340 ± 1568 U/L
- Survival [6, 22]: 5/5
- Extent of liver damage [6, 23]: 5-10%
- GPT [6, 23]: 66 ± 18 U/L and 84 ± 37 U/L
- LDH [6, 23]: 611 ± 252 U/L
- Survival [6, 23]: 5/5
- Extent of liver damage [6, 24]: 4-9%
- GPT [6, 24]: 79 ± 5 U/L
- LDH [6, 24]: 772 ± 1138 U/L and 772 ± 138 U/L
- Survival [6, 24]: 5/5
- ED (maximal) ([6]; Mus musculus, read-out: dose sufficient to produce maximal protection): 5 mg/kg
- minimal effective dose ([6]; Mus musculus, read-out: low dose at which protective effect was demonstrated): 5 mg/kg
- NDMA demethylase activity, % of the control level (P-450 2E1 [7]; 0.5 hours): 31%
- NDMA demethylase activity, % of the control level (P-450 2E1 [7]; 1 hour): 54%
- NDMA demethylase activity, % of the control level (P-450 2E1 [7]; 3 hours): 49%
- NDMA demethylase activity, % of the control level (P-450 2E1 [7]; 6 hours): 73%
- hepatic cytochrome P-450 2E1 activity (P-450 2E1 [7]; oral administration, mice): rapid decreases
- ethoxyresorufin (EORR) dealkylase activity, % of control level (P-450 1A2; 50 mg/kg single oral dose, 0.5 hours): 79%
- ethoxyresorufin (EORR) dealkylase activity, % of control level (P-450 1A2; 50 mg/kg single oral dose, 1 hour): 39%
- ethoxyresorufin (EORR) dealkylase activity, % of control level (P-450 1A2; 50 mg/kg single oral dose, 3 hours): 52%
- ethoxyresorufin (EORR) dealkylase activity, % of control level (P-450 1A2; 50 mg/kg single oral dose, 6 hours): 46%
- EORR dealkylase activity (P-450 1A2; 50 mg/kg single oral dose, after 15 hours): returned to control levels
- hepatic cytochrome P-450 1A2 activity (P-450 1A2; oral administration, mice): rapid decreases
- liver microsomal NDMA demethylase activity (P-450 2E1 [3]; 200 mg/kg, rats): marked decrease
- liver microsomal P-450 2E1-dependent (NDMA demethylase) activity (P-450 2E1 [3]): decreased

Compound: CCO [ethanol]
- inhibition of acetaminophen bioactivation [4]: inhibit acetaminophen bioactivation

Compound: NCCS [cysteamine]
- protection in acetaminophen overdose (acetaminophen overdose): some protection

Compound: CC(=O)Nc1ccc(O)cc1 [APAP, N-acetyl-p-aminophenol, reference compound]
- Extent of liver damage [6, 25]: 26-40%
- LDH [6, 25]: 17227 ± 3464 U/L
- Survival [6, 25]: 2/5
- increase of serum LDH ([6]; acetaminophen 0.2 g/kg, mice): 20 fold
- liver histology ([6]; acetaminophen 0.2 g/kg, surviving mice (FIG. 2B)): hepatocellular necrosis; also recorded: typical centrilobular degeneration, necrosis, and inflammation
- plasma acetaminophen level always associated with hepatic damage (hepatotoxicity; 4 hours after ingestion): greater than 300 mcg/ml
- plasma acetaminophen level always associated with hepatic damage (hepatotoxicity; 12 hours after ingestion): greater than 50 mcg/ml
- fatalities (hepatotoxicity; acute overdoses of less than 15 g): rare
- single dose after which hepatotoxicity may occur (hepatotoxicity; in vivo): 7.5 to 10 g
- plasma acetaminophen half-life above which hepatic necrosis is likely (hepatotoxicity; overdose): exceeds 4 hours
